Data published in PMC11719397, “Monophthalates of betulinic acid and related pentacyclic triterpenes inhibit efficiently the SOS-mediated nucleotide exchange and impact PI3K/AKT signaling in oncogenic K-RAS4B proteins” (RSC Advances, 2025).

Experiments:
K-RAS4B G12V = K-RAS4B G12V (Homo sapiens, UniProt P01116, G12V); assay: Nucleotide exchange assay (SOS1-mediated GDP/GTP exchange, GDP-Glo), K-RAS4B G12V; type: biochemical; conditions: eight data points, at least three determinations, (*) single determination
K-RAS4B G12V, sequence (P01116 1-188 isoform P01116-2 G12V): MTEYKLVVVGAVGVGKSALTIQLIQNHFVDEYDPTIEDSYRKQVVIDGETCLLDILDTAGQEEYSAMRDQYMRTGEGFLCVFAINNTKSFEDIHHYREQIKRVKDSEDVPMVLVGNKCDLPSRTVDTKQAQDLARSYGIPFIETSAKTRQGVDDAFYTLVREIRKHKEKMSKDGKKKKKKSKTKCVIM

K-RAS4B^G12D [1] = biological target: T1, K-RAS4B^G12D (Homo sapiens, UniProt P01116, G12D); assay: biochemical; conditions: K-RAS4B GDP/GTP exchange; eight data points, at least three determinations
T1 sequence (P01116 1-188 isoform P01116-2 G12D): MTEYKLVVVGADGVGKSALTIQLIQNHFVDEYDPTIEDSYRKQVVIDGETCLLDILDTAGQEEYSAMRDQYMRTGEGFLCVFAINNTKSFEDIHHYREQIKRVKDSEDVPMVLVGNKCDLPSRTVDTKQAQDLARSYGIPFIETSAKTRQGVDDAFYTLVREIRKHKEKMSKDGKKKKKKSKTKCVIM

K-RAS4B wild-type [2] = assay: Nucleotide exchange assay (SOS1-mediated GDP/GTP exchange, GDP-Glo), K-RAS4B wild-type; type: biochemical; conditions: GDP/GTP exchange IC50 of wild-type versus G12D/G12V mutants
K-RAS4B wild-type [3] = biological target: K-RAS4B wild-type (Homo sapiens, UniProt P01116); assay: as above; type: biochemical; conditions: K-RAS4B GDP/GTP exchange; eight data points, at least three determinations; (*) single determination
K-RAS4B wild-type (Homo sapiens, UniProt P01116), sequence (P01116 1-188 isoform P01116-2): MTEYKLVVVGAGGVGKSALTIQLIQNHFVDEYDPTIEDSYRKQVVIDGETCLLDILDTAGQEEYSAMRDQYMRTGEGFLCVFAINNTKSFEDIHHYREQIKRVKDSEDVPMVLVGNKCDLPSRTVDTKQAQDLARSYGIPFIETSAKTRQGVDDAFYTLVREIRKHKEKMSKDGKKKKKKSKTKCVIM

SOS = biological target: T2, SOS (Homo sapiens, UniProt Q07889); assay: Surface plasmon resonance (SPR), SOS; type: binding; conditions: SOS alone
T2 sequence (Q07889 1-1333): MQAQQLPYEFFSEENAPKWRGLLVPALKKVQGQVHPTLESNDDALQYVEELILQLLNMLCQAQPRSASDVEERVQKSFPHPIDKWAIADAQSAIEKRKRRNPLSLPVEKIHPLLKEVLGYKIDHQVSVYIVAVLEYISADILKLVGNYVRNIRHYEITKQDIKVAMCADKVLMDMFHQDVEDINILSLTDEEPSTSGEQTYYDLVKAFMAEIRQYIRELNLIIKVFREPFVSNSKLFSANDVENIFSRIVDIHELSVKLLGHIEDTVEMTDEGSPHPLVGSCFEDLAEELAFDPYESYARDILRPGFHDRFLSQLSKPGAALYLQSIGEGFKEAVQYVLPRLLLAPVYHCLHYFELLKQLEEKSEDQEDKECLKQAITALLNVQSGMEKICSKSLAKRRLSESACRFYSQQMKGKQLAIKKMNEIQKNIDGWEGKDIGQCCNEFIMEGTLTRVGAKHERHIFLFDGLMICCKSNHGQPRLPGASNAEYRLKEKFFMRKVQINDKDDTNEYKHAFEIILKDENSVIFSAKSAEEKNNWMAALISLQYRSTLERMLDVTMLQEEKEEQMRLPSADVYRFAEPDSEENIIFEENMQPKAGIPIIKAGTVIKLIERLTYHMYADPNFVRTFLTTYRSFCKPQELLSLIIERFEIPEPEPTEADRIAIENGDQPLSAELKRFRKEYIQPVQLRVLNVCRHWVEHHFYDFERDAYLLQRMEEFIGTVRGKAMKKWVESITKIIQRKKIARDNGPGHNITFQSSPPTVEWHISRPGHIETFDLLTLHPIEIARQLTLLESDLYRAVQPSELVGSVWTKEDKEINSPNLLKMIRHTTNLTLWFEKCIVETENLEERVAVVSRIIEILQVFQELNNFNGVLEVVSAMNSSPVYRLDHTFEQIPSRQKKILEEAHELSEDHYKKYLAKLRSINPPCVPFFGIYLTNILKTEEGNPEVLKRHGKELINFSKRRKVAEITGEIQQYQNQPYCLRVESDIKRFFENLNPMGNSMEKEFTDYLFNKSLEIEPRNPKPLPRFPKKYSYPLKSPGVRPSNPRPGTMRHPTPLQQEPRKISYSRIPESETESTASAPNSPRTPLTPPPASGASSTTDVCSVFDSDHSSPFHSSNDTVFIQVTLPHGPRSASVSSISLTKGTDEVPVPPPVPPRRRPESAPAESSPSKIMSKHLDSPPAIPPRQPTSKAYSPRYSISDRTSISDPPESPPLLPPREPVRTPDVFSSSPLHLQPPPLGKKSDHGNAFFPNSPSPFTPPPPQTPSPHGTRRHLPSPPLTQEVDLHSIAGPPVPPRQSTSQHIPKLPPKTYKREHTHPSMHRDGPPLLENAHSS

K-RAS4B^G12D [4] = biological target: T1, K-RAS4B^G12D; assay: Surface plasmon resonance (SPR), K-RAS4B^G12D; type: binding; conditions: K-RAS4B^G12D alone

With C=C(C)[C@@H]1CC[C@]2(C(=O)O)CC[C@]3(C)[C@H](CC[C@@H]4[C@@]5(C)CC[C@H](OC(=O)CC(C)(C)C(=O)O)C(C)(C)[C@@H]5CC[C@]43C)[C@@H]12 [Compound 28, bevirimat, reference compound] the IC50 (K-RAS4B G12V) was 0.61 ± 0.14 µM, the IC50 (K-RAS4B^G12D [1]) was 0.59 ± 0.19 µM and the “selectivity factor, mutant versus K-RAS4B^wt” value (K-RAS4B wild-type [2]) was 3–4. For the same compound, the IC50 (K-RAS4B wild-type [3]) was 2.15 ± 0.17 µM, the Kd (SOS) was > 1000 µM and the Kd (K-RAS4B^G12D [4]) was > 300 µM.
